Data on twelve compounds can be found in US20240279202A1 (NURIX THERAPEUTICS, INC., priority 2021, published 2024).

Data set [1] can be described thus: Mouse PK analysis (blood/plasma concentration after oral administration). The format is in vivo. The following applies: mice; for AUC(0-t) / Cmax / Tmax: mouse, plasma; for AUC(0-t) / Cmax / Tmax / detected in plasma through (FIG. 4B): oral; for detected in plasma through (FIG. 4B): plasma LC/MS/MS. A digest of the protocol: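 Mice were dosed by oral gavage at 90 mg/kg with blood sampled at 1, 2 and 6 h; a second study used oral dosing with plasma taken at 6 or 24 h. Plasma levels were measured by LC/MS/MS (acetonitrile precipitation, internal-standard curve, positive ESI MRM), and Cmax, Tmax and AUClast were derived by noncompartmental analysis.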

The next data set concerns the target T1, ITK (Homo sapiens, UniProt Q08881).
T1 sequence (Q08881 1-620): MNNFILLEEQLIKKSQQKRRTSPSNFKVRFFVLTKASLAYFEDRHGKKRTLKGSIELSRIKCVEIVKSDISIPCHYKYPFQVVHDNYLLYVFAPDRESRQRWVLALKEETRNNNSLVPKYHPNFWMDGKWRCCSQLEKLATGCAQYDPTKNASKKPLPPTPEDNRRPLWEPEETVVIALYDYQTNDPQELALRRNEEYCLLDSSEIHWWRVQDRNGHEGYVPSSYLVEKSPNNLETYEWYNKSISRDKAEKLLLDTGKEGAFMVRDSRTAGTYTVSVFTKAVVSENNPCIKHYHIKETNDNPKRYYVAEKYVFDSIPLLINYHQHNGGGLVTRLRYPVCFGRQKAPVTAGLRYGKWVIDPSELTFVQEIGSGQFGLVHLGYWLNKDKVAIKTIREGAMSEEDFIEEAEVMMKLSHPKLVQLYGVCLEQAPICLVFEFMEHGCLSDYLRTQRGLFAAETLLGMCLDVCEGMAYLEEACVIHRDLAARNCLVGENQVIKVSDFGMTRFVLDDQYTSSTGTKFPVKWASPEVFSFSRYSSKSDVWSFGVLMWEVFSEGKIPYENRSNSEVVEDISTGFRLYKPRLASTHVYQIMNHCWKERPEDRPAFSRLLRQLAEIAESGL
As to the kind of experiment: ITK degradation HiBiT assay. The format is cell-based. Conditions: 4 hrs; for DC50: C-terminal HiBiT-tagged Molt4 cells; for Dmax: MOLT-4, C-terminal HiBiT-tagged Molt4 cells. Further details: expressed in transfected cells; host or cells: Molt4 (ATCC CRL-1552), monoclonal clone 1C10, engineered to carry the HiBiT tag. A digest of the protocol:
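C-terminal HiBiT-tagged Molt4 cells (clone 1C10) treated 4 h at 32° C with an 11-point, 5-fold compound dilution series (0.5% DMSO). HiBiT lytic detection with LgBiT then luminescence read; % ITK remaining versus concentration fit by four-parameter variable-slope model to give DC50 and Dmax.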
A general note: With HiBiT, luminescence reflects the tagged protein that the partner subunit can reach.

Molecules are shown by their SMILES. Counter-ions that a name gives are not always drawn. Some results are limits rather than exact numbers.

Take `C[C@@H](C(=O)N(C)c1ccc2cc(-c3n[nH]c4c3C[C@@H]3C(F)(F)[C@]3(C)C4)[nH]c2c1)N1CCN(C[C@H]2CCN(c3ccc4c(c3)C(=O)N(C3CCC(=O)NC3=O)C4=O)C2)CC1` (stereo partly drawn) [Compound 9, (2S)—N-(2-((4aS,5aR)-5,5-difluoro-5a-methyl-1,4,4a,5,5a,6-hexahydrocyclopropa[f]indazol-3-yl)-1H-indol-6-yl)-2-(4-(((3R)-1-(2-(2,6-dioxopiperidin-3-yl)-1,3-dioxoisoindolin-5-yl)pyrrolidin-3-yl)methyl)piperazin-1-yl)-N-methylpropanamide]: in data set [1], the AUC(0-t) (as a rule, the area under the concentration-time curve up to a stated or last time point) is 0.154 µM·h; the maximum concentration (Cmax) (usually the peak of the concentration-time curve) worked out at 46 nM; the Tmax (in general, the time at which the peak concentration occurs) was 6 h. At ITK, it took 0.21 nM to reach half-maximal degradation (DC50) and the Dmax (commonly the greatest extent of degradation seen) turned out to be 85%.
As for `C[C@@H](C(=O)N(C)c1ccc2cc(-c3n[nH]c4c3CCC(C)(C)C4)[nH]c2c1)N1CCN(C[C@H]2CCN(c3ccc4c(c3)CN(C3CCC(=O)NC3=O)C4=O)C2)CC1` (stereo partly drawn) [Compound 12, (2S)—N-(2-(6,6-dimethyl-4,5,6,7-tetrahydro-1H-indazol-3-yl)-1H-indol-6-yl)-2-(4-(((3R)-1-(2-(2,6-dioxopiperidin-3-yl)-1-oxoisoindolin-5-yl)pyrrolidin-3-yl)methyl)piperazin-1-yl)-N-methylpropanamide], in data set [1], the AUC(0-t) is 0.198 µM·h, the highest level (Cmax) was 80.3 nM and the time to peak (Tmax) turned out to be 1 h. At ITK, it took 0.29 nM to reach half-maximal degradation (DC50) and the Dmax was 86%.
The matching figures for `Cn1c(=O)n(C2CCC(=O)NC2=O)c2cccc(N3CCC(CN4CCC5(CC4)CCN(c4ccc6cc(-c7n[nH]c8c7CCC(C)(C)C8)[nH]c6c4)C5=O)CC3)c21` (centres unmarked) [Compound 13, 3-(4-(4-((2-(2-(6,6-dimethyl-4,5,6,7-tetrahydro-1H-indazol-3-yl)-1H-indol-6-yl)-1-oxo-2,8-diazaspiro[4.5]decan-8-yl)methyl)piperidin-1-yl)-3-methyl-2-oxo-2,3-dihydro-1H-benzo[d]imidazol-1-yl)piperidine-2,6-dione]: 0.927 µM·h, 251 nM, 4 h, 2.4 nM and 90%.
With `C[C@@]12Cc3[nH]nc(-c4cc5ccc(N6CCC7(CCN(Cc8ccc9c(c8)C(=O)N(C8CCC(=O)NC8=O)C9=O)CC7)C6=O)cc5[nH]4)c3C[C@@H]1C2(F)F` (stereo partly drawn) [Compound 15, 5-((2-(2-((4aS,5aR)-5,5-difluoro-5a-methyl-1,4,4a,5,5a,6-hexahydrocyclopropa[f]indazol-3-yl)-1H-indol-6-yl)-1-oxo-2,8-diazaspiro[4.5]decan-8-yl)methyl)-2-(2,6-dioxopiperidin-3-yl)isoindoline-1,3-dione hydrochloride], in data set [1], the area under the curve AUC(0-t) is 3.14 µM·h, the peak level (Cmax) was 743 nM and the Tmax was 4 h. Moreover, on ITK, the DC50 (as a rule, the midpoint of the concentration-degradation curve) is 0.35 nM and the greatest degradation seen (Dmax) was determined as 93%.
In the case of `Cn1c(=O)n(C2CCC(=O)NC2=O)c2cccc(N3CCC(CN4CCC5(CC4)CCN(c4ccc6cc(-c7n[nH]c8c7C[C@@H]7C(F)(F)[C@]7(C)C8)[nH]c6c4)C5=O)CC3)c21` (stereo partly drawn) [Compound 16, 3-(4-(4-((2-(2-((4aS,5aR)-5,5-difluoro-5a-methyl-1,4,4a,5,5a,6-hexahydrocyclopropa[f]indazol-3-yl)-1H-indol-6-yl)-1-oxo-2,8-diazaspiro[4.5]decan-8-yl)methyl)piperidin-1-yl)-3-methyl-2-oxo-2,3-dihydro-1H-benzo[d]imidazol-1-yl)piperidine-2,6-dione], in data set [1], the “detected in plasma through (FIG. 4B)” value is 6 h, the area under the curve AUC(0-t) was 1.53 µM·h, the concentration peaked (Cmax) at 585 nM and the time of peak concentration (Tmax) came out at 6 h. At ITK, this compound registered a DC50 of 0.23 nM and a maximal degradation (Dmax) of 90%.
As for `C[C@@H](C(=O)N(C)c1ccc2cc(-c3n[nH]c4c3C[C@@H]3C(F)(F)[C@]3(C)C4)[nH]c2c1)N1CCN(CC2CCN(c3ccc(C4CCC(=O)NC4=O)cn3)CC2)CC1` (stereo partly drawn) [Compound 17, (2S)—N-(2-((4aS,5aR)-5,5-difluoro-5a-methyl-1,4,4a,5,5a,6-hexahydrocyclopropa[f]indazol-3-yl)-1H-indol-6-yl)-2-(4-((1-(5-(2,6-dioxopiperidin-3-yl)pyridin-2-yl)piperidin-4-yl)methyl)piperazin-1-yl)-N-methylpropanamide], in data set [1], the “detected in plasma through (FIG. 4B)” value amounted to 24 h. On ITK, this compound came in with a DC50 of less than 0.001 nM.
Turning to `CC1(C)CCc2c(-c3cc4ccc(N5CCC6(CCN(CC7CCN(c8ccc(C9CCC(=O)NC9=O)cn8)CC7)CC6)C5=O)cc4[nH]3)n[nH]c2C1` (centres unmarked) [Compound 22, 3-(6-(4-((2-(2-(6,6-dimethyl-4,5,6,7-tetrahydro-1H-indazol-3-yl)-1H-indol-6-yl)-1-oxo-2,8-diazaspiro[4.5]decan-8-yl)methyl)piperidin-1-yl)pyridin-3-yl)piperidine-2,6-dione], in data set [1], the AUC(0-t) was 7.07 µM·h, the highest level (Cmax) was 2430 nM and the time to peak (Tmax) came to 1 h. At ITK, half-maximal degradation (DC50) was put at 0.01 nM and the Dmax was 82%.
Regarding `C[C@@H](C(=O)N(C)c1ccc2cc(-c3n[nH]c4c3CCC(C)(C)C4)[nH]c2c1)N1CCN(C(=O)C2CN(C3CCN(c4ccc5c(c4)C(=O)N(C4CCC(=O)NC4=O)C5=O)CC3)C2)CC1` (stereo partly drawn) [Compound 34, (2S)—N-(2-(6,6-dimethyl-4,5,6,7-tetrahydro-1H-indazol-3-yl)-1H-indol-6-yl)-2-(4-(1-(1-(2-(2,6-dioxopiperidin-3-yl)-1,3-dioxoisoindolin-5-yl)piperidin-4-yl)azetidine-3-carbonyl)piperazin-1-yl)-N-methylpropanamide], the “Cal. Conc. Total (μM) 2 h” value in data set [1] (2 h) was “BQL”. Further, the “Cal. Conc. Total (μM) 6 h” value in data set [1] (6 h) is “BQL”. At ITK, this compound gave a half-maximal degradation concentration (DC50) of 1.8 nM and a Dmax of 89%.
On to `C[C@@]12Cc3[nH]nc(C(=O)Nc4cnn(CC5CN(C(=O)C6CN(c7ccc8c(c7)C(=O)N(C7CCC(=O)NC7=O)C8=O)C6)C5)c4)c3C[C@@H]1C2(F)F` (stereo partly drawn) [Compound 43, (4aS,5aR)-N-(1-((1-(1-(2-(2,6-dioxopiperidin-3-yl)-1,3-dioxoisoindolin-5-yl)azetidine-3-carbonyl)azetidin-3-yl)methyl)-1H-pyrazol-4-yl)-5,5-difluoro-5a-methyl-1,4,4a,5,5a,6-hexahydrocyclopropa[f]indazole-3-carboxamide], for which, in data set [1], the exposure AUC(0-t) came to 2.34 µM·h, the Cmax came out at 720 nM and the Tmax stood at 6 h. At ITK, this compound displayed a half-maximal degradation concentration (DC50) of 2.9 nM and a maximal degradation (Dmax) of 93%.
As for `C[C@@]12Cc3[nH]nc(C(=O)Nc4cnn(CC5CN(C[C@H]6CCN(c7ccc8c(c7)C(=O)N(C7CCC(=O)NC7=O)C8=O)C6)C5)c4)c3C[C@@H]1C2(F)F` (stereo partly drawn) [Compound 44, (4aS,5aR)-N-(1-((1-(((3R)-1-(2-(2,6-dioxopiperidin-3-yl)-1,3-dioxoisoindolin-5-yl)pyrrolidin-3-yl)methyl)azetidin-3-yl)methyl)-1H-pyrazol-4-yl)-5,5-difluoro-5a-methyl-1,4,4a,5,5a,6-hexahydrocyclopropa[f]indazole-3-carboxamide], in data set [1], the highest level (Cmax) was 27 nM and the Tmax was found to be 2 h. Also, at ITK, the DC50 amounted to 2.4 nM and the Dmax is 88%.
Consider `Cn1c(=O)n([C@H]2CCC(=O)NC2=O)c2cccc(N3CCC(CN4CCN(C(=O)c5ccc6cc(-c7n[nH]c8c7CCC(C)(C)C8)[nH]c6c5)CC4)CC3)c21` [Compound 46, (S)-3-(4-(4-((4-(2-(6,6-dimethyl-4,5,6,7-tetrahydro-1H-indazol-3-yl)-1H-indole-6-carbonyl)piperazin-1-yl)methyl)piperidin-1-yl)-3-methyl-2-oxo-2,3-dihydro-1H-benzo[d]imidazol-1-yl)piperidine-2,6-dione], for which, in data set [1], the exposure AUC(0-t) worked out at 9.38 µM·h, the concentration peaked (Cmax) at 2130 nM and the time to peak (Tmax) stood at 4 h. At ITK, this compound registered a DC50 of 14 nM and a Dmax of 79%.
As to `Cn1c(=O)n([C@@H]2CCC(=O)NC2=O)c2cccc(N3CCC(CN4CCN(C(=O)c5ccc6cc(-c7n[nH]c8c7CCC(C)(C)C8)[nH]c6c5)CC4)CC3)c21` [Compound 48, (R)-3-(4-(4-((4-(2-(6,6-dimethyl-4,5,6,7-tetrahydro-1H-indazol-3-yl)-1H-indole-6-carbonyl)piperazin-1-yl)methyl)piperidin-1-yl)-3-methyl-2-oxo-2,3-dihydro-1H-benzo[d]imidazol-1-yl)piperidine-2,6-dione], in data set [1], the AUC(0-t) was determined as 8.42 µM·h, the peak level (Cmax) was 2440 nM and the time of peak concentration (Tmax) worked out at 6 h. On ITK, this compound came in with a DC50 of 5.2 nM and a maximal degradation (Dmax) of 86%.
